US11498899B2, “Nitrone herbicides” (FMC Corporation, priority 2016, dated 2022)

Experiments:
rice (Oryza sativa) = test: Test B flooded paddy test, visual rating 0-100 (0 no effect, 100 complete control); details: Flood, 250 g ai/ha, applied to paddy water, rated after 13 to 15 days
[1] = tested on: barnyardgrass (Echinochloa crus-galli); test: Test A preemergence, visual injury rating 0-100 (0 no effect, 100 complete control); type: in vivo; details: for Barnyardgrass plant response rating: 0 to 100 scale
[2] = tested on: barnyardgrass (Echinochloa crus-galli); test: Test B flooded paddy test, visual rating 0-100; details: Flood, 250 g ai/ha, applied to paddy water, rated after 13 to 15 days
[3] = tested on: foxtail, giant (giant foxtail, Setaria faberii); test: Test A postemergence, visual injury rating 0-100; type: in vivo; details: 0 to 100 scale
[4] = tested on: pigweed (Amaranthus retroflexus); test: Test A postemergence, visual injury rating 0-100; type: in vivo; details: 0 to 100 scale
[5] = tested on: ryegrass, Italian (Italian ryegrass, Lolium multiflorum); test: Test A postemergence, visual injury rating 0-100; type: in vivo; details: 0 to 100 scale
kochia (Kochia scoparia) [6] = test: Test A postemergence, visual injury rating 0-100; type: in vivo; details: 0 to 100 scale
[7] = tested on: galium (catchweed bedstraw, Galium aparine); test: Test A postemergence, visual injury rating 0-100; type: in vivo; details: 0 to 100 scale
[8] = tested on: barnyardgrass (Echinochloa crus-galli); test: Test A postemergence, visual injury rating 0-100; type: in vivo; details: 0 to 100 scale
[9] = tested on: blackgrass (Alopecurus myosuroides); test: Test A postemergence, visual injury rating 0-100; type: in vivo; details: 0 to 100 scale
[10] = tested on: ragweed (common ragweed, Ambrosia elatior); test: Test A postemergence, visual injury rating 0-100; type: in vivo; details: 0 to 100 scale
[11] = tested on: wheat (Triticum aestivum); test: Test A postemergence, visual injury rating 0-100; type: in vivo; details: 0 to 100 scale
corn (Zea mays) = test: Test A postemergence, visual injury rating 0-100; type: in vivo; details: 0 to 100 scale
[12] = tested on: ducksalad (Heteranthera limosa); test: Test B flooded paddy test, visual rating 0-100; details: Flood, 250 g ai/ha, applied to paddy water, rated after 13 to 15 days
[13] = tested on: foxtail, giant (giant foxtail, Setaria faberii); test: Test A preemergence, visual injury rating 0-100; type: in vivo; details: for Foxtail, Giant plant response rating: 0 to 100 scale
[14] = tested on: pigweed (Amaranthus retroflexus); test: Test A preemergence, visual injury rating 0-100; type: in vivo; details: for Pigweed plant response rating: 0 to 100 scale
[15] = tested on: ryegrass, Italian (Italian ryegrass, Lolium multiflorum); test: Test A preemergence, visual injury rating 0-100; type: in vivo; details: for Ryegrass, Italian plant response rating: 0 to 100 scale
kochia (Kochia scoparia) [16] = test: Test A preemergence, visual injury rating 0-100; type: in vivo; details: for Kochia plant response rating: 0 to 100 scale
[17] = tested on: ragweed (common ragweed, Ambrosia elatior); test: Test A preemergence, visual injury rating 0-100; type: in vivo; details: for Ragweed plant response rating: 0 to 100 scale

## CC1=[N+]([O-])[C@@H](C(=O)Nc2cccc(F)c2F)[C@H](c2ccc(C(F)(F)F)cc2)C1 (relative stereo) [Compound 2, trans-N-(2,3-difluorophenyl)-3,4-dihydro-5-methyl-3-[4-(trifluoromethyl)phenyl]-2H-pyrrole-2-carboxamide 1-oxide]
Rice (Oryza sativa)
  Rice plant response rating (0 to 100 scale): 0
[1]; 125 g ai/ha
  Barnyardgrass plant response rating (0 to 100 scale): 90
[1]; 500 g ai/ha
  Barnyardgrass plant response rating: 100
[2]
  Barnyardgrass plant response rating (0 to 100 scale): 70
[3]; 125 g ai/ha
  Foxtail, Giant plant response rating: 90
[3]; 500 g ai/ha
  Foxtail, Giant plant response rating: 90
[4]; 125 g ai/ha
  Pigweed plant response rating: 40
[4]; 500 g ai/ha
  Pigweed plant response rating: 80
[5]; 125 g ai/ha
  Ryegrass, Italian plant response rating: 60
[5]; 500 g ai/ha
  Ryegrass, Italian plant response rating: 70
Kochia (Kochia scoparia) [6]; 125 g ai/ha
  Kochia plant response rating: 40
Kochia (Kochia scoparia) [6]; 500 g ai/ha
  Kochia plant response rating: 80
[7]; 125 g ai/ha
  Galium plant response rating: 70
[7]; 500 g ai/ha
  Galium plant response rating: 70
[8]; 125 g ai/ha
  Barnyardgrass plant response rating: 70
[8]; 500 g ai/ha
  Barnyardgrass plant response rating: 90
[9]; 125 g ai/ha
  Blackgrass plant response rating: 20
[9]; 500 g ai/ha
  Blackgrass plant response rating: 90
[10]; 125 g ai/ha
  Ragweed plant response rating: 30
[10]; 500 g ai/ha
  Ragweed plant response rating: 60
[11]; 125 g ai/ha
  Wheat plant response rating: 40
[11]; 500 g ai/ha
  Wheat plant response rating: 70
Corn (Zea mays); 125 g ai/ha
  Corn plant response rating: 40
Corn (Zea mays); 500 g ai/ha
  Corn plant response rating: 80
[12]
  Ducksalad plant response rating (0 to 100 scale): 90
[13]; 125 g ai/ha
  Foxtail, Giant plant response rating (0 to 100 scale): 100
[13]; 500 g ai/ha
  Foxtail, Giant plant response rating: 100
[14]; 125 g ai/ha
  Pigweed plant response rating (0 to 100 scale): 90
[14]; 500 g ai/ha
  Pigweed plant response rating: 90
[15]; 125 g ai/ha
  Ryegrass, Italian plant response rating (0 to 100 scale): 30
[15]; 500 g ai/ha
  Ryegrass, Italian plant response rating: 50
Kochia (Kochia scoparia) [16]; 125 g ai/ha
  Kochia plant response rating (0 to 100 scale): 90
Kochia (Kochia scoparia) [16]; 500 g ai/ha
  Kochia plant response rating: 80
[17]; 125 g ai/ha
  Ragweed plant response rating (0 to 100 scale): 40
[17]; 500 g ai/ha
  Ragweed plant response rating: 90

## CC1=[N+]([O-])[C@@H](C(=O)Nc2cccc(F)c2F)[C@H](c2ccc(Cl)cc2)C1 (relative stereo) [Compound 5, trans-3-(4-chlorophenyl)-N-(2,3-difluorophenyl)-3,4-dihydro-5-methyl-2H-pyrrole-2-carboxamide 1-oxide]
Rice (Oryza sativa)
  Rice plant response rating (0 to 100 scale): 0
[1]; 125 g ai/ha
  Barnyardgrass plant response rating (0 to 100 scale): 100
[1]; 500 g ai/ha
  Barnyardgrass plant response rating: 100
[2]
  Barnyardgrass plant response rating (0 to 100 scale): 65
[3]; 125 g ai/ha
  Foxtail, Giant plant response rating: 60
[3]; 500 g ai/ha
  Foxtail, Giant plant response rating: 70
[4]; 125 g ai/ha
  Pigweed plant response rating: 40
[4]; 500 g ai/ha
  Pigweed plant response rating: 70
[5]; 125 g ai/ha
  Ryegrass, Italian plant response rating: 0
[5]; 500 g ai/ha
  Ryegrass, Italian plant response rating: 30
Kochia (Kochia scoparia) [6]; 125 g ai/ha
  Kochia plant response rating: 60
Kochia (Kochia scoparia) [6]; 500 g ai/ha
  Kochia plant response rating: 70
[7]; 125 g ai/ha
  Galium plant response rating: 50
[7]; 500 g ai/ha
  Galium plant response rating: 80
[8]; 125 g ai/ha
  Barnyardgrass plant response rating: 90
[8]; 500 g ai/ha
  Barnyardgrass plant response rating: 90
[9]; 125 g ai/ha
  Blackgrass plant response rating: 20
[9]; 500 g ai/ha
  Blackgrass plant response rating: 50
[10]; 125 g ai/ha
  Ragweed plant response rating: 30
[10]; 500 g ai/ha
  Ragweed plant response rating: 70
[11]; 125 g ai/ha
  Wheat plant response rating: 20
[11]; 500 g ai/ha
  Wheat plant response rating: 80
Corn (Zea mays); 125 g ai/ha
  Corn plant response rating: 0
Corn (Zea mays); 500 g ai/ha
  Corn plant response rating: 50
[12]
  Ducksalad plant response rating (0 to 100 scale): 100
[13]; 125 g ai/ha
  Foxtail, Giant plant response rating (0 to 100 scale): 100
[13]; 500 g ai/ha
  Foxtail, Giant plant response rating: 100
[14]; 125 g ai/ha
  Pigweed plant response rating (0 to 100 scale): 50
[14]; 500 g ai/ha
  Pigweed plant response rating: 90
[15]; 125 g ai/ha
  Ryegrass, Italian plant response rating (0 to 100 scale): 10
[15]; 500 g ai/ha
  Ryegrass, Italian plant response rating: 80
Kochia (Kochia scoparia) [16]; 125 g ai/ha
  Kochia plant response rating (0 to 100 scale): 10
Kochia (Kochia scoparia) [16]; 500 g ai/ha
  Kochia plant response rating: 60
[17]; 125 g ai/ha
  Ragweed plant response rating (0 to 100 scale): 50
[17]; 500 g ai/ha
  Ragweed plant response rating: 90

## CC1=[N+]([O-])[C@H](C(=O)Nc2cccc(F)c2F)[C@@H](c2ccc(C)cc2)C1 (relative stereo) [Compound 6, rel-(2S,3R)—N-(2,3-Difluorophenyl)-3,4-dihydro-5-methyl-3-(4-methylphenyl)-2H-pyrrole-2-carboxamide 1-oxide]
Rice (Oryza sativa)
  Rice plant response rating (0 to 100 scale): 0
[1]; 125 g ai/ha
  Barnyardgrass plant response rating (0 to 100 scale): 100
[1]; 500 g ai/ha
  Barnyardgrass plant response rating: 100
[2]
  Barnyardgrass plant response rating (0 to 100 scale): 85
[3]; 125 g ai/ha
  Foxtail, Giant plant response rating: 90
[3]; 500 g ai/ha
  Foxtail, Giant plant response rating: 90
[4]; 125 g ai/ha
  Pigweed plant response rating: 40
[4]; 500 g ai/ha
  Pigweed plant response rating: 50
[5]; 125 g ai/ha
  Ryegrass, Italian plant response rating: 50
[5]; 500 g ai/ha
  Ryegrass, Italian plant response rating: 60
Kochia (Kochia scoparia) [6]; 125 g ai/ha
  Kochia plant response rating: 30
Kochia (Kochia scoparia) [6]; 500 g ai/ha
  Kochia plant response rating: 70
[7]; 125 g ai/ha
  Galium plant response rating: 50
[7]; 500 g ai/ha
  Galium plant response rating: 70
[8]; 125 g ai/ha
  Barnyardgrass plant response rating: 90
[8]; 500 g ai/ha
  Barnyardgrass plant response rating: 90
[9]; 125 g ai/ha
  Blackgrass plant response rating: 50
[9]; 500 g ai/ha
  Blackgrass plant response rating: 80
[10]; 125 g ai/ha
  Ragweed plant response rating: 0
[10]; 500 g ai/ha
  Ragweed plant response rating: 60
[11]; 125 g ai/ha
  Wheat plant response rating: 60
[11]; 500 g ai/ha
  Wheat plant response rating: 80
Corn (Zea mays); 125 g ai/ha
  Corn plant response rating: 30
Corn (Zea mays); 500 g ai/ha
  Corn plant response rating: 80
[12]
  Ducksalad plant response rating (0 to 100 scale): 100
[13]; 125 g ai/ha
  Foxtail, Giant plant response rating (0 to 100 scale): 100
[13]; 500 g ai/ha
  Foxtail, Giant plant response rating: 100
[14]; 125 g ai/ha
  Pigweed plant response rating (0 to 100 scale): 80
[14]; 500 g ai/ha
  Pigweed plant response rating: 90
[15]; 125 g ai/ha
  Ryegrass, Italian plant response rating (0 to 100 scale): 80
[15]; 500 g ai/ha
  Ryegrass, Italian plant response rating: 90
Kochia (Kochia scoparia) [16]; 125 g ai/ha
  Kochia plant response rating (0 to 100 scale): 70
Kochia (Kochia scoparia) [16]; 500 g ai/ha
  Kochia plant response rating: 70
[17]; 125 g ai/ha
  Ragweed plant response rating (0 to 100 scale): 40
[17]; 500 g ai/ha
  Ragweed plant response rating: 100

## CC1=[N+]([O-])[C@H](C(=O)Nc2cccc(F)c2F)[C@@H](c2ccc(C(F)(F)F)c(F)c2)C1 (relative stereo) [Compound 61, rel-(2S,3R)—N-(2,3-Difluorophenyl)-3-[3-fluoro-4-(trifluoromethyl)phenyl]-3,4-dihydro-5-methyl-2H-pyrrole-2-carboxamide 1-oxide]
Rice (Oryza sativa)
  Rice plant response rating (0 to 100 scale): 0
[1]; 125 g ai/ha
  Barnyardgrass plant response rating (0 to 100 scale): 90
[1]; 500 g ai/ha
  Barnyardgrass plant response rating (0 to 100 scale): 90
[2]
  Barnyardgrass plant response rating (0 to 100 scale): 65
[3]; 125 g ai/ha
  Foxtail, Giant plant response rating: 70
[3]; 500 g ai/ha
  Foxtail, Giant plant response rating: 90
[4]; 125 g ai/ha
  Pigweed plant response rating: 30
[4]; 500 g ai/ha
  Pigweed plant response rating: 50
[5]; 125 g ai/ha
  Ryegrass, Italian plant response rating: 80
[5]; 500 g ai/ha
  Ryegrass, Italian plant response rating: 80
Kochia (Kochia scoparia) [6]; 125 g ai/ha
  Kochia plant response rating: 0
Kochia (Kochia scoparia) [6]; 500 g ai/ha
  Kochia plant response rating: 30
[7]; 125 g ai/ha
  Galium plant response rating: 50
[7]; 500 g ai/ha
  Galium plant response rating: 60
[8]; 125 g ai/ha
  Barnyardgrass plant response rating: 70
[8]; 500 g ai/ha
  Barnyardgrass plant response rating: 90
[9]; 125 g ai/ha
  Blackgrass plant response rating: 50
[9]; 500 g ai/ha
  Blackgrass plant response rating: 90
[10]; 125 g ai/ha
  Ragweed plant response rating: 0
[10]; 500 g ai/ha
  Ragweed plant response rating: 50
[11]; 125 g ai/ha
  Wheat plant response rating: 70
[11]; 500 g ai/ha
  Wheat plant response rating: 90
Corn (Zea mays); 125 g ai/ha
  Corn plant response rating: 50
Corn (Zea mays); 500 g ai/ha
  Corn plant response rating: 90
[12]
  Ducksalad plant response rating (0 to 100 scale): 74
[13]; 125 g ai/ha
  Foxtail, Giant plant response rating (0 to 100 scale): 90
[13]; 500 g ai/ha
  Foxtail, Giant plant response rating (0 to 100 scale): 90
[14]; 125 g ai/ha
  Pigweed plant response rating (0 to 100 scale): 80
[14]; 500 g ai/ha
  Pigweed plant response rating (0 to 100 scale): 90
[15]; 125 g ai/ha
  Ryegrass, Italian plant response rating (0 to 100 scale): 80
[15]; 500 g ai/ha
  Ryegrass, Italian plant response rating (0 to 100 scale): 90
Kochia (Kochia scoparia) [16]; 125 g ai/ha
  Kochia plant response rating (0 to 100 scale): 30
Kochia (Kochia scoparia) [16]; 500 g ai/ha
  Kochia plant response rating (0 to 100 scale): 80
[17]; 125 g ai/ha
  Ragweed plant response rating (0 to 100 scale): 50
[17]; 500 g ai/ha
  Ragweed plant response rating (0 to 100 scale): 80
